Source: patent US10537579B2, “Rejection reaction suppressant” (JUNTENDO EDUCATIONAL FOUNDATION, priority 2017, dated 2020)

How the values were obtained:
Format in all cases: in vivo
[1] = tested on: foxp3, IL-10 and TGFβ1 in transplanted mouse corneas; experiment: Mouse corneal transplant model: expression levels in the corneas by real-time PCR (qPCR) on day 14; details: day 14 after corneal transplantation
Protocol: (§1) Mouse corneal transplant models were prepared (surgery), divided into groups (Group P, Group R2, and Group R3), and treated (ocular instillation) in the same manner as in Example 1. On day 14 after transplantation, cervical lymph node cells were collected, and CD4^+ T cells, the expression levels of inflammatory cytokines IFNγ and IL-17, CD4^+CD25^+Foxp3^+ regulatory T cells (Tregs) involved in immune tolerance, […], and the expression level of Foxp3 (Mean Fluorescein Intensity, MFI) were measured by flow cytometry (FACS). Further, on day 14 after transplantation, the expression levels of foxp3, IL-10, and TGFβ1 in the corneas were also measured by a real-time PCR (qPCR).

[2] = tested on: mouse cervical lymph node cells; experiment: Mouse corneal transplant model: cervical lymph node cells by flow cytometry (FACS) on day 14; details: day 14 after transplantation
Protocol: as §1

[3] = tested on: transplanted human cornea; experiment: Effects on transplanted human cornea (case, angiogenesis in corneal graft); details: after 3 weeks of ocular instillation
Protocol: Corneal transplantation was performed in a case of corneal perforation resulting from corneal herpes (person), and as a result, severe hyperemia was observed one month after surgery, and vascularization was observed also in a corneal graft. Peripheral anterior synechia was observed, and secondary glaucoma was observed, and therefore GLANATEC ophthalmic solution 0.4% was prescribed.

[4] = tested on: CD31, VEGF-A and Lyve-1 in transplanted mouse corneas; experiment: Mouse corneal transplant model: expression levels in the corneas by real-time PCR on day 56; details: Group R3: three times daily, vs Group P, p<0.001
Protocol: (§2) Mouse corneal transplant models were prepared in accordance with a method described in a document (J Biol Methods 2015 2(3); e 27, hereinafter referred to as Document A) and used in an experiment. More specifically, allograft corneal transplantation was performed between 6 to 8-week-old donor male C57BL/6 mice and 6 to 8-week-old host male Balb/c mice.
(§3) The mice that had received corneal transplantation were divided into three groups (5 mice per group): ocular instillation of PBS twice daily (Group P: control group); ocular instillation of ripasudil twice daily (Group R2); and ocular instillation of ripasudil three times daily (Group R3).
(§4) The amount of PBS or ripasudil instilled into one eye per administration was 0.1 μL, and GLANATEC ophthalmic solution 0.4% was used as ripasudil.
(§5) After transplantation, the ocular instillation was performed every day until day 56, during which the angiogenesis score and opacity score (each of which was determined by a method described in. Document A) and the survival time of corneal grafts were evaluated with a slit lamp microscope every 7 days. On day 56 that was the final day of the experiment, in addition to the above evaluations, the expression levels of vascular endothelial cells (CD31), vascular endothelial cell growth factor (VEGF-A), and lymph vessels (Lyve-1) in the corneas were measured by real-time-PCR.

[5] = tested on: transplanted mouse corneas; experiment: Mouse corneal transplant model: angiogenesis score, opacity score and graft survival by slit lamp microscope; details: Group R3: ocular instillation three times daily
Protocol: as §2, §3, §4, §5

[6] = until day 56, vs Group P (PBS), p<0.05

## C[C@H]1CNCCCN1S(=O)(=O)c1cccc2cncc(F)c12.Cl.O.O [ripasudil, 4-fluoro-5-{[(2S)-2-methyl-1,4-diazepan-1-yl]sulfonyl}isoquinoline monohydrochloride dihydrate]
[1]; Group R2: twice daily
  expression of foxp3 in the corneas: significantly increased
[1]; Group R3: three times daily
  expression of IL-10 in the corneas: significantly increased
  expression of TGFβ1 in the corneas: significantly increased
  expression of foxp3 in the corneas: significantly increased
[2]; Group R2: twice daily
  Foxp3 expression level (MFI) in cervical lymph node cells: significantly increased
[2]; Group R3: three times daily
  CD4+CD25+Foxp3+ regulatory T cells (Tregs) in cervical lymph node cells: significantly increased
  CD4+CD25+Foxp3− regulatory T cells (exTregs) in cervical lymph node cells: significantly reduced
  Foxp3 expression level (MFI) in cervical lymph node cells: significantly increased
  inflammatory cytokine IFN-γ in cervical lymph node cells: significant reduction
[3]
  numerical analysis of new blood vessels with Image J (FIG. 10): effect of suppressing angiogenesis
[4]
  CD31 expression level in the corneas: significantly lower
  Lyve-1 expression level in the corneas: significantly lower
  VEGF-A expression level in the corneas: significantly lower
[5]
  transparency of transplanted cornea (photographs, FIG. 1): maintained until day 56
[5]; [6]
  angiogenesis score: significantly lower
  opacity score: significantly lower
  survival time of corneal grafts: significantly prolonged
